The text below walks through data of PubChem BioAssay (NCI).

Molecules are shown by their SMILES.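 Cells were grown in 96-well plates and exposed to each compound for 48 hours at five concentrations; endpoints were interpolated linearly between bracketing concentrations, or set to the highest concentration if not reached. GI50 is the concentration that inhibits growth by half. At the TGI there is no net growth.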

Test systems include SF-539 CNS; MALME-3M melanoma; ACHN renal; SF-295 CNS; MCF7 breast; HOP-62 NSCLC; SK-MEL-5 melanoma; SK-MEL-2 melanoma; SF-268 CNS; PC-3 prostate.
Common to all, as to assay: DTP human tumour cell line panel, 48 h

On to `C=CC(=O)Nc1cccc(Nc2nc(Nc3ccc(OCCOC)cc3)ncc2F)c1`, for which the GI50 with SF-539 CNS is 1.47 µM; in the assay with MALME-3M melanoma it was 3.08 µM; in the assay with ACHN renal it was 0.454 µM; with SF-295 CNS, 2.95 µM; with MCF7 breast it was 2.54 µM; in the assay with HOP-62 NSCLC, 2.42 µM. For the same compound, the GI50 with SK-MEL-5 melanoma is 6.18 µM; in the assay on SK-MEL-2 melanoma, 1.9 µM; with SF-268 CNS it was 2.06 µM; in the assay with PC-3 prostate, 2.92 µM. The TGI with SF-539 CNS came out at 4.95 µM; in the assay on MALME-3M melanoma, 20.9 µM; with ACHN renal, 2.84 µM; with SF-295 CNS, 14 µM; in the assay on MCF7 breast it was 17.2 µM; in the assay with HOP-62 NSCLC, 20.7 µM. For the same compound, the total growth inhibition concentration (TGI) in the assay with SK-MEL-5 melanoma was determined as 20.2 µM; in the assay with SK-MEL-2 melanoma it was 8.65 µM; with SF-268 CNS, 16 µM; in the assay with PC-3 prostate, 26.9 µM.

On to `COc1ccc(NC2=C(Br)C(=O)C(C)=C(C)C2=O)cc1`, for which the GI50 in the assay with SF-539 CNS was 13.5 µM; with MALME-3M melanoma, 14.5 µM; in the assay on ACHN renal, 2.87 µM; in the assay with SF-295 CNS it was 13.8 µM; in the assay on MCF7 breast, 1.78 µM; with HOP-62 NSCLC it was 15 µM. Moreover, the GI50 is 13.1 µM with SK-MEL-5 melanoma, 11.4 µM in the assay with SK-MEL-2 melanoma, 11.9 µM with SF-268 CNS and 2.78 µM with PC-3 prostate. Also, the TGI is 26.7 µM in the assay with SF-539 CNS; 28.3 µM in the assay on MALME-3M melanoma; 8.76 µM in the assay on ACHN renal; 27 µM with SF-295 CNS; 3.77 µM in the assay with MCF7 breast; 38.6 µM with HOP-62 NSCLC. Moreover, the TGI in the assay on SK-MEL-5 melanoma came out at 26 µM; in the assay with SK-MEL-2 melanoma, 28.3 µM; with SF-268 CNS, 28.2 µM; with PC-3 prostate it was 9.05 µM.

Take `COc1cc(-c2cn(C)c(=O)c(C)c2C)cc(OC)c1CN1CC[C@H](N2CCN(c3ccc(N[C@H]4CCC(=O)NC4=O)cc3F)CC2)C(F)(F)C1`: the GI50 in the assay on SF-539 CNS was 14.4 µM; in the assay with MALME-3M melanoma it was 15 µM; in the assay with ACHN renal, 15.2 µM; with SF-295 CNS, 11.9 µM; in the assay with MCF7 breast it was 3.16 µM; in the assay with HOP-62 NSCLC, 14 µM. The GI50 is 4.64 µM with SK-MEL-5 melanoma, 14.6 µM in the assay on SK-MEL-2 melanoma, 16.5 µM in the assay on SF-268 CNS and 11 µM in the assay on PC-3 prostate. Besides, the TGI with SF-539 CNS is 28.6 µM; in the assay on MALME-3M melanoma, 30.1 µM; in the assay with ACHN renal it was 28.8 µM; in the assay on SF-295 CNS it was 25.5 µM; in the assay on MCF7 breast, 29.6 µM; in the assay with HOP-62 NSCLC, 39.2 µM. Besides, the TGI stood at 18.8 µM with SK-MEL-5 melanoma, 29.4 µM in the assay on SK-MEL-2 melanoma, 40.2 µM with SF-268 CNS and 47.1 µM with PC-3 prostate.

On to `CNC(=O)c1cc(Oc2ccc(NC(=O)Nc3ccc(Cl)c(OC(F)(F)F)c3)c(F)c2)ccn1`, for which the GI50 with SF-539 CNS was 3.38 µM; in the assay with ACHN renal, 1.33 µM; in the assay with SF-295 CNS, 1.1 µM; in the assay with MCF7 breast, 1.12 µM; in the assay with HOP-62 NSCLC, 2.49 µM; in the assay on SK-MEL-5 melanoma, 1.63 µM. Further, the GI50 with SK-MEL-2 melanoma was 1.03 µM; with SF-268 CNS, 2.44 µM; in the assay on PC-3 prostate, 1.48 µM. The TGI was 8.13 µM with SF-539 CNS; over 33.2 µM with ACHN renal; 5.25 µM in the assay with SF-295 CNS; 7.17 µM in the assay with MCF7 breast; 29.3 µM in the assay on HOP-62 NSCLC; 5.46 µM in the assay on SK-MEL-5 melanoma. Moreover, the TGI in the assay with SK-MEL-2 melanoma turned out to be 5.86 µM; in the assay with SF-268 CNS, 14.2 µM; with PC-3 prostate, 19 µM.

`Cc1ccc(C(=O)CC(Sc2cccc(Cl)c2Cl)c2ccc(Cl)cc2)cc1C` (centres undefined): the GI50 with SF-539 CNS was 22.8 µM; with MALME-3M melanoma it was 15.5 µM; with SF-295 CNS it was 16.9 µM; with MCF7 breast, 15.9 µM; in the assay with HOP-62 NSCLC, 24.2 µM; with SK-MEL-5 melanoma, 16.6 µM. Moreover, the figures for the GI50 with SK-MEL-2 melanoma, in the assay on SF-268 CNS and in the assay with PC-3 prostate were 20.2 µM, 21.3 µM and 15.8 µM, respectively. The TGI with SF-539 CNS is 53.6 µM; in the assay with MALME-3M melanoma, 39.9 µM; with SF-295 CNS, 37.2 µM; in the assay with MCF7 breast, 36.1 µM; with HOP-62 NSCLC, 60.6 µM; in the assay on SK-MEL-5 melanoma, 33 µM. Further, the TGI turned out to be 39 µM with SK-MEL-2 melanoma, 48.2 µM with SF-268 CNS and 29.2 µM in the assay with PC-3 prostate.

With `Cc1ccc2/c(=C/c3ccc(N(C)C)cc3)c3cc(-c4ccccc4)[n+](C)n3c2c1`, the GI50 was 0.0456 µM in the assay with SF-539 CNS; 0.0285 µM with MALME-3M melanoma; 0.175 µM in the assay on ACHN renal; 0.352 µM in the assay with SF-295 CNS; 0.036 µM in the assay on MCF7 breast; 0.257 µM with HOP-62 NSCLC. For the same compound, the GI50 in the assay on SK-MEL-5 melanoma was 0.0344 µM; with PC-3 prostate, 0.0251 µM. Besides, the TGI in the assay on SF-539 CNS amounted to 2.21 µM; with MALME-3M melanoma, 1.17 µM; in the assay on SF-295 CNS it was 3.31 µM; in the assay on MCF7 breast, 11.3 µM; in the assay with HOP-62 NSCLC, 7.33 µM; in the assay with SK-MEL-5 melanoma, 0.169 µM. Also, in the assay with PC-3 prostate, the TGI came out at 3.9 µM.

Take `COc1ccc(-c2cc(-c3cc(Cl)ccc3Cl)nc3nc(=S)[nH]c(N)c23)cc1`: the GI50 in the assay on SF-539 CNS is 27 µM; in the assay with ACHN renal, 27.1 µM; in the assay with SF-295 CNS, 17.1 µM; with MCF7 breast, 20.1 µM; with HOP-62 NSCLC it was 14.9 µM; in the assay on SK-MEL-5 melanoma it was 18.2 µM. Besides, the GI50 is 81.7 µM in the assay with SK-MEL-2 melanoma, 57.7 µM with SF-268 CNS and 24.8 µM with PC-3 prostate. Moreover, the TGI in the assay with SF-539 CNS is 82.9 µM; in the assay on ACHN renal it was 98.4 µM; with SF-295 CNS it was 46.5 µM; in the assay with MCF7 breast it was over 100 µM; in the assay on HOP-62 NSCLC, 28.3 µM; with SK-MEL-5 melanoma it was 94.6 µM. For the same compound, the total growth inhibition concentration (TGI) in the assay on SK-MEL-2 melanoma, with SF-268 CNS and in the assay with PC-3 prostate was over 100 µM throughout.

As a reminder, the GI50 is the concentration giving 50% growth inhibition. By TGI is commonly meant the concentration giving total growth inhibition. A low value points to more potent growth arrest.
